{"source": "patent US20250332178A1", "about": "“METHODS OF TREATING MYCOBACTERIAL INFECTIONS USING TETRACYCLINE COMPOUNDS” (priority 2018, published 2025)", "key": {"[1]": {"test_system": "M. abscessus subsp. abscessus CIP 104536", "assay_type": "cell-based", "conditions": "at 4 mg/L, after 7 days of drug exposure; subculture plates 16 mg/L"}, "[2]": {"test_system": "M. abscessus subsp. abscessus CIP 104536", "test": "MIC according to CLSI guidelines", "conditions": "Mycobacteroides abscessus, CIP104536, read-out: Minimal Inhibitory Concentration (MIC)", "method": "Vials with M. abscessus suspensions were stored at −80° C. Cultures on solid medium were grown on Mueller Hinton II agar (BD), supplemented with 10% OADC and 0.5% glycerol for 10 days at 37° C. with 5% CO2."}, "[3]": {"test_system": "M. abscessus subsp. abscessus CIP 104536", "test": "Time-kill kinetics assay", "assay_type": "cell-based", "procedure": "Briefly, M. abscessus cultures were exposed to antimicrobial drugs at 4-fold increasing concentrations for 7 days at 37° C. under shaking conditions at 96 rpm. […] The drug concentrations ranged from 0.063 to 256 mg/L for both compounds. […] At day 1, 3 and 7 during drug exposure, samples were collected, centrifuged at 14000 xg to avoid anti-NTM drug carry over, serially diluted (10-fold, 10^0-10^7) and subcultured onto solid medium. […] The lower limit of detection was 5 cfu/mL (log 0.7). All experiments were performed in duplicate. Time-kill curves, as well as concentration-effect curves were generated."}, "M. abscessus": {"test_system": "M. abscessus", "conditions": "strains of M. abscessus; Wallace et al.; cited from earlier work"}, "[4]": {"test": "Intra-pulmonary steady-state concentrations (plasma, ELF, alveolar cells) after multiple IV doses in healthy adult subjects", "assay_type": "in vivo, human", "conditions": "model-computed", "procedure": "The remaining 20 subjects received tigecycline as 1 intravenous dose of 100 mg administered as a 30 minute infusion at t=0, followed by 6 intravenous doses of 50 mg administered as 30 minute infusions at t=12, 24, 36, 48, 60, and 72 hours. A study completion visit was conducted on the day following the final test article dose. There was a final follow-up assessment 7 to 14 days following the subject's last dose of test article which may be completed by telephone contact or other interactive technology unless an examination was needed to evaluate adverse events or abnormalities noted at the study completion visit.\nPlasma PK samples were collected pre-dose and at 0.5, 1, 1.5, 2, 3, 4, 6, 8, 12 and 24 hours post-dose on day 4. […] One BAL sample was collected from each subject on day 4. Subjects were randomized to one of the following collection times: 0.5, 1, 2, 4, 8, 12 or 24 hours post-dose."}, "[5]": {"conditions": "daily; previously shown (Bax et al.); cited from earlier work"}, "[6]": {"test": "MIC by broth microdilution in CAMHB, clinical isolates", "assay_type": "cell-based, Mycobacterium chelonae"}, "[7]": {"test_system": "Bacille Calmette Guerin (BCG)", "assay_type": "cell-based, Mycobacterium bovis", "conditions": "disk: 15 μg of clarithromycin"}}}
{"smiles": "CN(C)c1cc(NC(=O)CNC(C)(C)C)c(O)c2c1C[C@H]1C[C@H]3[C@H](N(C)C)C(O)=C(C(N)=O)C(=O)[C@@]3(O)C(O)=C1C2=O", "note": "[Tigecycline, tigecycline]", "values": [{"measurement": "selection of drug resistance above the spontaneous mutation frequency", "setting": "[1]", "value": 0.6, "unit": "%"}, {"measurement": "MIC", "setting": "[2]", "value": 4, "unit": "µg/mL"}, {"measurement": "concentration for 1 log mycobacterial killing", "setting": "[3]; after 7 days of exposure", "value": 2.7, "unit": "mg/L"}, {"measurement": "concentration for 2 log mycobacterial killing", "setting": "[3]; after 7 days of exposure", "value": 3.4, "unit": "mg/L"}, {"measurement": "concentration for stasis (concentration-effect curve)", "setting": "[3]; after 7 days of exposure", "value": 2.2, "unit": "mg/L"}, {"measurement": "concentrations showing mycobacterial killing", "setting": "[3]; time-kill, up to 7 days exposure", "value": "≥ 4", "unit": "mg/L"}, {"measurement": "in vitro activity (in words)", "setting": "M. abscessus", "value": "good activity"}, {"measurement": "AUC", "setting": "[4]; human, in vivo, compartment models, read-out: Total-drug AUC72-96, ELF (Median)", "value": 2590, "unit": "ng·h/mL"}, {"measurement": "Kp", "setting": "[4]; human, in vivo, read-out: Penetration Ratio: total-drug ELF AUC72-84 to free-drug plasma AUC72-84 (Median)", "value": 1.87}, {"measurement": "Free-drug AUC72-96, Plasma (Median)", "setting": "[4]; compartment models", "value": 1380, "unit": "ng·h/mL"}, {"measurement": "decline in concentration", "setting": "[5]", "value": 80, "unit": "%"}, {"measurement": "MIC90", "setting": "[6]", "value": 0.125, "unit": "µg/mL"}, {"measurement": "MIC", "setting": "[6]; isolate No. 1, MC 7323", "value": 0.125, "unit": "µg/mL"}, {"measurement": "MIC", "setting": "[6]; isolate No. 2, MC 7534", "value": 0.03, "unit": "µg/mL"}, {"measurement": "MIC", "setting": "[6]; isolate No. 3, MC 7368", "value": 0.03, "unit": "µg/mL"}, {"measurement": "MIC", "setting": "[6]; isolate No. 4, MC 7514", "value": 0.06, "unit": "µg/mL"}, {"measurement": "MIC", "setting": "[6]; isolate No. 5, MC 7584", "value": 0.06, "unit": "µg/mL"}, {"measurement": "MIC", "setting": "[6]; isolate No. 6, MC 7192", "value": 0.03, "unit": "µg/mL"}, {"measurement": "MIC", "setting": "[6]; isolate No. 7, MC 7466", "value": 0.03, "unit": "µg/mL"}, {"measurement": "MIC", "setting": "[6]; isolate No. 8, MC 7533", "value": 0.125, "unit": "µg/mL"}, {"measurement": "MIC", "setting": "[6]; isolate No. 9, MC 7579", "value": 0.03, "unit": "µg/mL"}, {"measurement": "MIC", "setting": "[6]; isolate No. 10, MC 7614", "value": 0.125, "unit": "µg/mL"}, {"measurement": "MIC", "setting": "[6]; isolate No. 11, MC 7414", "value": 0.06, "unit": "µg/mL"}, {"measurement": "MIC", "setting": "[6]; isolate No. 12, MC 7313", "value": 0.25, "unit": "µg/mL"}, {"measurement": "MIC", "setting": "[6]; isolate No. 13, MC 7281", "value": 0.5, "unit": "µg/mL"}, {"measurement": "MIC", "setting": "[6]; isolate No. 14, MC 7328", "value": 0.015, "unit": "µg/mL"}, {"measurement": "MIC", "setting": "[6]; isolate No. 15, MC 7294", "value": 0.125, "unit": "µg/mL"}, {"measurement": "MIC", "setting": "[6]; isolate No. 16, MC 14-S-03", "value": 0.5, "unit": "µg/mL"}, {"measurement": "MIC", "setting": "[6]; isolate No. 17, MC 14-S-04", "value": 0.06, "unit": "µg/mL"}, {"measurement": "MIC", "setting": "[6]; isolate No. 18, MC 14-S-05", "value": 0.125, "unit": "µg/mL"}, {"measurement": "MIC", "setting": "[6]; isolate No. 19, MC 14-S-06", "value": 0.03, "unit": "µg/mL"}, {"measurement": "MIC", "setting": "[6]; isolate No. 20, MC 14-S-07", "value": 0.06, "unit": "µg/mL"}, {"measurement": "MIC", "setting": "[6]; isolate No. 21, MC 35757", "value": 0.125, "unit": "µg/mL"}, {"measurement": "MIC", "setting": "[6]; isolate No. 22, MC 7302", "value": 0.25, "unit": "µg/mL"}]}
{"smiles": "CC[C@H]1OC(=O)[C@H](C)[C@@H](O[C@H]2C[C@@](C)(OC)[C@@H](O)[C@H](C)O2)[C@H](C)[C@@H](O[C@@H]2O[C@H](C)C[C@H](N(C)C)[C@H]2O)[C@](C)(OC)C[C@@H](C)C(=O)[C@H](C)[C@@H](O)[C@]1(C)O", "note": "[clarithromycin]", "values": [{"measurement": "clear zone", "setting": "[7]", "value": 45, "unit": "mm clear zone"}]}
